Experimental data reported in PubChem BioAssay AID2060622 (Molecular Pharmacology Branch, DTP, NCI, 2025).

Tested on: 242566-281-R-J2-PDC complex spheroid viability
Experiment: Anticancer human tumor 242566-281-R-J2-PDC patient-derived pancreatic carcinoma cell line growth inhibition [CLK]
Settings: for IC50: curve of first compound; for viability, T/C: stronger effect = lower value
Outline: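 Multi-cell-type spheroids combined patient-derived tumor cells with HUVEC endothelial cells and human mesenchymal stem cells. Paired agents were dosed in half-log steps down from about clinical Cmax, or from 10 microM where Cmax was unknown.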

[1] = second compound 0.0316 µM, first compound 0.0316 µM
[2] = second compound 0.0316 µM, first compound 0.1 µM
[3] = second compound 0.0316 µM, first compound 0.316 µM
[4] = second compound 0.0316 µM, first compound 1 µM
[5] = second compound 0.0316 µM, first compound 3.16 µM
[6] = second compound 0.0316 µM, first compound 10 µM
[7] = second compound 0.1 µM, first compound 0.0316 µM
[8] = second compound 0.1 µM, first compound 0.1 µM
[9] = second compound 0.1 µM, first compound 0.316 µM
[10] = second compound 0.1 µM, first compound 1 µM
[11] = second compound 0.1 µM, first compound 3.16 µM
[12] = second compound 0.1 µM, first compound 10 µM
[13] = second compound 0.316 µM, first compound 0.0316 µM
[14] = second compound 0.316 µM, first compound 0.1 µM
[15] = second compound 0.316 µM, first compound 0.316 µM
[16] = second compound 0.316 µM, first compound 1 µM
[17] = second compound 0.316 µM, first compound 3.16 µM
[18] = second compound 0.316 µM, first compound 10 µM
[19] = second compound 1 µM, first compound 0.0316 µM
[20] = second compound 1 µM, first compound 0.1 µM
[21] = second compound 1 µM, first compound 0.316 µM
[22] = second compound 1 µM, first compound 1 µM
[23] = second compound 1 µM, first compound 3.16 µM
[24] = second compound 1 µM, first compound 10 µM
[25] = second compound 3.16 µM, first compound 0.0316 µM
[26] = second compound 3.16 µM, first compound 0.1 µM
[27] = second compound 3.16 µM, first compound 0.316 µM
[28] = second compound 3.16 µM, first compound 1 µM
[29] = second compound 3.16 µM, first compound 3.16 µM
[30] = second compound 3.16 µM, first compound 10 µM
[31] = second compound 10 µM, first compound 0.0316 µM
[32] = second compound 10 µM, first compound 0.1 µM
[33] = second compound 10 µM, first compound 0.316 µM
[34] = second compound 10 µM, first compound 1 µM
[35] = second compound 10 µM, first compound 3.16 µM
[36] = second compound 10 µM, first compound 10 µM
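Also: spheroids exposed to compounds for 7 days before readout.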
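For viability, T/C in this document: 100% = DMSO vehicle control wells.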

Q: Which results are given for COc1cccc2c1C(=O)c1c(O)c3c(c(O)c1C2=O)CC(O)(C(=O)CO)CC3OC1CC(N)C(O)C(C)O1 (centres undefined) + CNC(=O)c1ccc(Nc2nc(OC3CCCC3)c3c(-c4ccc5nc(C)oc5c4)c[nH]c3n2)c(OC)c1?
A: IC50 (second compound 0.0316 µM): 185 nM; IC50 (second compound 0.1 µM): 159 nM; IC50 (second compound 0.316 µM): 102 nM; IC50 (second compound 1 µM): 31.7 nM; IC50 (second compound 3.16 µM): < 31.6 nM; IC50 (second compound 10 µM): < 31.6 nM; viability, T/C [1]: 86.6%; viability, T/C [2]: 64.8%; viability, T/C [3]: 37%; viability, T/C [4]: 16.4%; viability, T/C [5]: 6.4%; viability, T/C [6]: 1.62%; viability, T/C [7]: 86.8%; viability, T/C [8]: 64.7%; viability, T/C [9]: 27.8%; viability, T/C [10]: 16%; viability, T/C [11]: 6.66%; viability, T/C [12]: 1.48%; viability, T/C [13]: 80.4%; viability, T/C [14]: 51.2%; viability, T/C [15]: 15.9%; viability, T/C [16]: 10.4%; viability, T/C [17]: 1.13%; viability, T/C [18]: 1.75%; viability, T/C [19]: 50.1%; viability, T/C [20]: 20.2%; viability, T/C [21]: 6.31%; viability, T/C [22]: 2.71%; viability, T/C [23]: 1.6%; viability, T/C [24]: 1.45%; viability, T/C [25]: 37.1%; viability, T/C [26]: 11.2%; viability, T/C [27]: 3.77%; viability, T/C [28]: 1.91%; viability, T/C [29]: 1.71%; viability, T/C [30]: 1.85%; viability, T/C [31]: 31.5%; viability, T/C [32]: 10.5%; viability, T/C [33]: 3.98%; viability, T/C [34]: 1.91%; viability, T/C [35]: 1.68%; viability, T/C [36]: 2.07%

Q: Which results are given for O=C(c1cc(Cc2n[nH]c(=O)c3ccccc23)ccc1F)N1CCN(C(=O)C2CC2)CC1 + CN1CCN(c2cc(C(=O)Nc3cc4cc(-c5cnn(C)c5)ccc4cn3)ccn2)CC1?
A: IC50 (second compound 0.0316 µM): > 10000 nM; IC50 (second compound 0.1 µM): > 10000 nM; IC50 (second compound 0.316 µM): < 31.6 nM; IC50 (second compound 1 µM): < 31.6 nM; IC50 (second compound 3.16 µM): < 31.6 nM; IC50 (second compound 10 µM): < 31.6 nM; viability, T/C [1]: 108%; viability, T/C [2]: 98%; viability, T/C [3]: 94.9%; viability, T/C [4]: 95.3%; viability, T/C [5]: 89.6%; viability, T/C [6]: 80.3%; viability, T/C [7]: 96.8%; viability, T/C [8]: 96.9%; viability, T/C [9]: 79.1%; viability, T/C [10]: 85.6%; viability, T/C [11]: 88.3%; viability, T/C [12]: 62.8%; viability, T/C [13]: 33.5%; viability, T/C [14]: 34.3%; viability, T/C [15]: 29.7%; viability, T/C [16]: 31.1%; viability, T/C [17]: 29.2%; viability, T/C [18]: 23.2%; viability, T/C [19]: 5.93%; viability, T/C [20]: 3.31%; viability, T/C [21]: 4.81%; viability, T/C [22]: 4.43%; viability, T/C [23]: 5.12%; viability, T/C [24]: 5.59%; viability, T/C [25]: 7.36%; viability, T/C [26]: 7.02%; viability, T/C [27]: 6.98%; viability, T/C [28]: 7.16%; viability, T/C [29]: 7.79%; viability, T/C [30]: 10.4%; viability, T/C [31]: 1.95%; viability, T/C [32]: 2.1%; viability, T/C [33]: 1.53%; viability, T/C [34]: 2.95%; viability, T/C [35]: 2.41%; viability, T/C [36]: 1.71%
